Assays:
[1] = test system: differentiated L6-myotubes; assay: Glucose uptake screen (Biological example 1 of WO 2019/053427); assay type: cell-based; conditions: compound at 10 μM, activity relative to isoproterenol at 10 μM, read-out: Biological example 1 of WO 2019/053427 (GU)
Procedure, shortened: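 Rat L6 myoblasts were differentiated into myotubes over 7 days in 2% FBS, then serum-starved overnight. Cells were stimulated with 1×10^−5 M compound plus β2 antagonist ICI-118551 for 1 h 40 min and re-dosed for 20 min in glucose-free medium. Uptake of 50 nM ^3H-2-deoxyglucose over 10 min was counted after NaOH lysis.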

[2] = test system: differentiated L6-myotubes; assay: cAMP production relative to isoprenaline (Biological example 2 of WO 2019/053427); assay type: cell-based; conditions: 0.25 h, compound at 10 μM, activity relative to isoproterenol at 10 μM
Procedure, shortened: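 Differentiated L6 myotubes stimulated 15 min with test compound or isoprenaline, each at final 1×10^−5 M, in HBSS with 1% BSA, 5 mM HEPES, 1 mM IBMX, pH 7.4. cAMP production by the compound expressed relative to that induced by the same concentration of isoprenaline.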

Structure (SMILES)	Emax at 10 µM [1]	Emax at 10 µM [2]
CO[C@H]1CC[C@H](C[C@H]2CC[C@H]([C@@H](O)c3cncc(F)c3)N2)CC1 [Compound 340, (S)-[(2R,5R)-5-{[(1r,4R)-4-methoxycyclohexyl]methyl}-2-pyrrolidinyl](5-fluoro-3-pyridyl)methanol]	25 to 50%	< 25%
CO[C@H]1CC[C@H](C[C@H]2CC[C@H]([C@H](O)c3cncc(F)c3)N2)CC1 [Compound 341, (R)-[(2R,5R)-5-{[(1r,4R)-4-methoxycyclohexyl]methyl}-2-pyrrolidinyl](5-fluoro-3-pyridyl)methanol]	> 75%	< 25%
COC(=O)[C@H]1CC[C@H](CCC(C)(C)NC[C@H](O)c2cncc(F)c2)CC1 [Compound 342, methyl (1R,4r)-4-{3-[(R)-2-(5-fluoro-3-pyridyl)-2-hydroxyethylamino]-3-methylbutyl}cyclohexanecarboxylate]	> 75%	< 25%
CC(C)(CC[C@H]1CC[C@H](C(=O)O)CC1)NC[C@H](O)c1cncc(F)c1 [Compound 343, (1R,4r)-4-{3-[(R)-2-(5-fluoro-3-pyridyl)-2-hydroxyethylamino]-3-methylbutyl}cyclohexanecarboxylic acid]	25 to 50%	< 25%
CC(C)(NC[C@H](O)c1cncc(F)c1)[C@H]1CC[C@H](N)CC1 [Compound 344, (R)-1-(5-fluoro-3-pyridyl)-2-{1-methyl-1-[(1r,4R)-4-aminocyclohexyl]ethylamino}-1-ethanol]	< 25%	< 25%
CC(C)(NC[C@H](O)c1cncc(F)c1)[C@H]1CC[C@H](NS(C)(=O)=O)CC1 [Compound 345, (R)-1-(5-fluoro-3-pyridyl)-2-{1-methyl-1-[(1r,4R)-4-(mesylamino)cyclohexyl]ethylamino}-1-ethanol]	25 to 50%	< 25%
CC(=O)N[C@H]1CC[C@H](C(C)(C)NC[C@H](O)c2cncc(F)c2)CC1 [Compound 346, N-[(1R,4r)-4-{1-[(R)-2-(5-fluoro-3-pyridyl)-2-hydroxyethylamino]-1-methylethyl}cyclohexyl]acetamide]	> 75%	< 25%
CC(C)(CC[C@H]1CC[C@@H](C(=O)O)CC1)NC[C@H](O)c1cncc(F)c1 [Compound 347, (1S,4s)-4-{3-[(R)-2-(5-fluoro-3-pyridyl)-2-hydroxyethylamino]-3-methylbutyl}cyclohexanecarboxylic acid]	> 75%	< 25%
CC(C)(CC[C@H]1CC[C@H](C(=O)O)CC1)NC[C@H](O)c1cccc(F)c1 [Compound 348, (1R,4r)-4-{3-[(R)-2-(m-fluorophenyl)-2-hydroxyethylamino]-3-methylbutyl}cyclohexanecarboxylic acid]	< 25%	< 25%
COC(=O)[C@H]1CC[C@@H](CCC(C)(C)NC[C@H](O)c2cncc(F)c2)CC1 [Compound 349, methyl (1S,4s)-4-{3-[(R)-2-(5-fluoro-3-pyridyl)-2-hydroxyethylamino]-3-methylbutyl}cyclohexanecarboxylate]	> 75%	25 to 50%
COC(=O)[C@H]1CC[C@H](CCC(C)(C)NC[C@H](O)c2cccc(F)c2)CC1 [Compound 350, methyl (1R,4r)-4-{3-[(R)-2-(m-fluorophenyl)-2-hydroxyethylamino]-3-methylbutyl}cyclohexanecarobxylate]	> 75%	< 25%
COC(=O)[C@H]1CC[C@@H](CCC(C)(C)NC[C@H](O)c2cccc(F)c2)CC1 [Compound 351, methyl (1S,4s)-4-{3-[(R)-2-(m-fluorophenyl)-2-hydroxyethylamino]-3-methylbutyl}cyclohexanecarboxylate]	> 75%	25 to 50%
CC(C)(CC[C@H]1CC[C@@H](C(=O)O)CC1)NC[C@H](O)c1cccc(F)c1 [Compound 352, (1S,4s)-4-{3-[(R)-2-(m-fluorophenyl)-2-hydroxyethylamino]-3-methylbutyl}cyclohexanecarboxylc acid]	25 to 50%	< 25%
COC(=O)[C@H]1CC[C@H](CC(C)(C)NC[C@H](O)c2cccc(F)c2)CC1 [Compound 353, methyl (1R,4r)-4-{2-[(R)-2-(m-fluorophenyl)-2-hydroxyethylamino]-2-methylpropyl}cyclohexanecarboxylate]	> 75%	< 25%
COC(=O)[C@H]1CC[C@H](CC(C)(C)NC[C@H](O)c2cncc(F)c2)CC1 [Compound 354, methyl (1R,4r)-4-{2-[(R)-2-(5-fluoro-3-pyridyl)-2-hydroxyethylamino]-2-methylpropyl}cyclohexanecarboxylate]	50 to 75%	< 25%
CC(C)(C[C@H]1CC[C@H](C(=O)O)CC1)NC[C@H](O)c1cccc(F)c1 [Compound 355, (1R,4r)-4-{2-[(R)-2-(m-fluorophenyl)-2-hydroxyethylamino]-2-methylpropyl}cyclohexanecarboxylic acid]	50 to 75%	< 25%
CC(C)(C[C@H]1CC[C@H](C(=O)O)CC1)NC[C@H](O)c1cncc(F)c1 [Compound 356, (1R,4r)-4-{2-[(R)-2-(5-fluoro-3-pyridyl)-2-hydroxyethylamino]-2-methylpropyl}cyclohexanecarboxylic acid]	< 25%	< 25%
CC(=O)N[C@H]1CC[C@H](CC(C)(C)NC[C@H](O)c2cncc(F)c2)CC1 [Compound 357, N-[(1R,4r)-4-{2-[(R)-2-(5-fluoro-3-pyridyl)-2-hydroxyethylamino]-2-methylpropyl}cyclohexyl]acetamide]	> 75%	< 25%
CC(C)(CC[C@H]1CC[C@H](N)CC1)NC[C@H](O)c1cncc(F)c1 [Compound 358, (R)-2-{1,1-dimethyl-3-[(1r,4R)-4-aminocyclohexyl]propylamino}-1-(5-fluoro-3-pyridyl)-1-ethanol]	25 to 50%	< 25%
CC(C)(C[C@H]1CC[C@H](N)CC1)NC[C@H](O)c1cncc(F)c1 [Compound 359, (R)-2-{1,1-dimethyl-2-[(1r,4R)-4-aminocyclohexyl]ethylamino}-1-(5-fluoro-3-pyridyl)-1-ethanol]	> 75%	< 25%
CC(C)(C[C@H]1CC[C@H](NS(C)(=O)=O)CC1)NC[C@H](O)c1cncc(F)c1 [Compound 360, (R)-2-{1,1-dimethyl-2-[(1r,4R)-4-(mesylamino)cyclohexyl]ethylamino}-1-(5-fluoro-3-pyridyl)-1-ethanol]	> 75%	< 25%
CC(=O)N[C@H]1CC[C@H](CCC(C)(C)NC[C@H](O)c2cncc(F)c2)CC1 [Compound 361, N-[(1R,4r)-4-{3-[(R)-2-(5-fluoro-3-pyridyl)-2-hydroxyethylamino]-3-methlbutyl}cyclohexyl]acetamide]	> 75%	< 25%
CC(C)(CC[C@H]1CC[C@H](NS(C)(=O)=O)CC1)NC[C@H](O)c1cncc(F)c1 [Compound 362, (R)-2-{1,1-dimethyl-3-[(1r,4R)-4-(mesylamino)cyclohexyl]propylamino}-1-(5-fluoro-3-pyridyl)-1-ethanol]	50 to 75%	< 25%

Source: US20260256751A1, “COMBINATION OF BETA-2-ADRENERGIC RECEPTOR AGONISTS AND GLP-1 RECEPTOR AGONISTS FOR USE IN TREATING HYPERGLYCAEMIA” (ATROGI AB, priority 2023, published 2026)
